# Test results as given in US7655598B2, “Herbicide composition” (Sumitomo Chemical Company, Limited, priority 2001, dated 2010).
# Test system: sickle pod
# Test: Test Example 1: foliar spray herbicide effect on sickle pod in greenhouse pots
# Type: in vivo, sickle pod (Cassia obtusifolia)
# Conditions: evaluated 5 days after treatment, scale 0-10
# Description: Evaluation of phytotoxicity against a crop was shown by “no” when almost no phytotoxicity was observed, “low” when a low level phytotoxicity was observed, “medium” when a medium level phytotoxicity was observed and “high” when a high level phytotoxicity was observed.
# A plastic pot of 11 cm in diameter and 8 cm in depth was filled with field soil. A seed of sickle pod was sown and grown in a greenhouse for 28 days.
# An emulsion of Compound A-1 was prepared by sufficiently mixing 5 parts of Compound A-1, 6 parts of Sorpol 3005X (surfactant, produced by Toho Chemical) and 89 parts of xylene.
# Each of • single use of an emulsion of Compound A-1, • single use of an emulsion of Oxyfluorfen (commercial name: Goal, produced by Rohm & Hass Co., containing 23% of Oxyfluorfen), and • a mixed composition of an emulsion of Compound A-1 and an emulsion of Oxyfluorfen, • were diluted with water containing 1% Agri-dex (produced by Helena). Respective dilutions were uniformly sprayed from upper side onto foliages of sickle pod grown as described above with a small sprayer such that the amounts of the active ingredients were the amounts shown in Table 4.
# After the treatment, they were raised in a greenhouse for 5 days and the effect against weeds was evaluated.
compound,measurement,setting,value
"CCOc1cc(Oc2ccc(C(F)(F)F)cc2Cl)ccc1[N+](=O)[O-] [Oxyfluorfen, 2-chloro-1-(3-ethoxy-4-nitrophenoxy)-4-(trifluoromethyl)benzen]",Herbicide Effect sickle pod,500 g/ha active ingredient,3
same,Herbicide Effect sickle pod,2000 g/ha active ingredient,3
